The nature of assay [1]: Inhibition of proteinase K at 0.05 mM by RT-PCR.
The nature of assay [2]: Inhibition of proteinase K at 0.25 mM by independent digestion assay in presence of BSA.
Assay [3] in a line: Inhibition of proteinase K at 1 mM by RT-PCR.
The nature of assay [4]: Inhibition of proteinase K at […] by RT-PCR.
A short description of assay [5]: Inhibition of proteinase K at 0.125 mM by independent digestion assay in presence of BSA.

The source made the active and inactive calls. No cut-off for these calls is given here.

As for `COC(=O)CCC(=O)N[C@H](C)C(=O)N[C@@H](C)C(=O)N1CCC[C@H]1C(=O)N[C@@H](Cc1ccccc1)C(=O)CCl`, the outcome in assay [1] and in assay [2] was Active.
As to `COC(=O)CCC(=O)N[C@H](C)C(=O)N[C@@H](C)C(=O)N1CCC[C@H]1C(=O)N[C@H](C(=O)CCl)C(C)C`, the result in assay [3], in assay [4] and in assay [5] was Active.

These data come from ChEMBL document CHEMBL1153283, “Synthesis and application of MeOSuc-Ala-Ala-Pro-Phe-CH2Cl as potent proteinase K inhibitor” (Bioorg Med Chem Lett, 2009).
